The target in series [1] is T1, full-length beta-Catenin (Uniprot ID P35222) (Homo sapiens, UniProt P35222).
T1 construct: 10 nM full-length beta-Catenin (Uniprot ID P35222)
T1 sequence (P35222 1-781): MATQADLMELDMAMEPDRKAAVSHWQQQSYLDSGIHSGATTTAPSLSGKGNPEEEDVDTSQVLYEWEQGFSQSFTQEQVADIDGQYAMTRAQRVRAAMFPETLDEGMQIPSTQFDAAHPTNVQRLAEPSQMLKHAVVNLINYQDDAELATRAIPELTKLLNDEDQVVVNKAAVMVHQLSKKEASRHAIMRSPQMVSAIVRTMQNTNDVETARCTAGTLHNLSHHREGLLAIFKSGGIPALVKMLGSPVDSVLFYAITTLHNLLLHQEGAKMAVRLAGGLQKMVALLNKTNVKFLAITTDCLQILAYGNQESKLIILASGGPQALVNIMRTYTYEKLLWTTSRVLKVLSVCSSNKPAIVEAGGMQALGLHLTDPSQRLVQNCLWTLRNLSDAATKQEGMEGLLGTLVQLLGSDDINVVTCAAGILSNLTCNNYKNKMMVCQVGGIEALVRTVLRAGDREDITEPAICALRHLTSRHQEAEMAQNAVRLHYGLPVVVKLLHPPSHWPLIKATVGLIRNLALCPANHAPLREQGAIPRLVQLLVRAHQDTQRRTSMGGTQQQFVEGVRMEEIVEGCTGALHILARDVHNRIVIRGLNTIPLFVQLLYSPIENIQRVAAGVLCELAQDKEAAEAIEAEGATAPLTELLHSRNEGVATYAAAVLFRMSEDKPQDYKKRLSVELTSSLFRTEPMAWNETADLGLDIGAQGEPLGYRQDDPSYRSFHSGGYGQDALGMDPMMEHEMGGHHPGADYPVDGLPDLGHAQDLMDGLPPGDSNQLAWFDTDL
The experiment in a line: Fluorescence polarization IC50 (beta-catenin / 5FAM-TCF4 10-53 competition). It counts as binding. For orientation: Polarisation of emitted light reports the rotation of a fluorescent probe.

The nature of another series: CHI Log D procedure. The format is physicochemical. Conditions: for CHI Log D: pH 7.4; for chromatographic logD: pH 7.4, CHI Log D.
A short description of a further series: Solubility in PBS. The format is physicochemical. Summed up:
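Steps: ultracentrifuge the peptide PBS solution, inject the supernatant on HPLC, inject a 50 μM peptide DMSO solution as reference, then calculate solubility as area ratio (PBS/DMSO) × 50 uM.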

Where [2] appears, read: fluorescence polarization, read-out: beta-Catenin FP IC50.

SMILES strings stand for the structures. In brackets after ≈: the same amount, converted by molar mass. Read-outs that look alike come from different tables or passages of the source.

As usually defined, the Solubility is the dissolved amount per volume that the medium holds. As to `CC(=O)N1CCC[C@]12CC=CCCCC1(CCCC=CCCCCCC[C@@](C)(C(=O)N[C@@H](Cc3ccccc3)C(=O)N[C@@H](Cc3csc4ccccc34)C(=O)N[C@@H](Cc3cn(C)cn3)C(N)=O)NC(=O)[C@H](CC(N)=O)NC(=O)[C@H](Cc3ccccc3)NC(=O)[C@H](C)NC(=O)[C@H](C)NC(=O)[C@H](CCC(=O)O)NC(=O)[C@H](CC(=O)O)NC1=O)NC(=O)[C@H](C)NC(=O)[C@H](CC(=O)O)NC2=O` (stereo partly drawn) [I-479, Ac-PL3-Asp-Ala-B5-Asp-Glu-Ala-Ala-Phe-Asn-S8-Phe-BztA-1MeH-NH2], the IC50 in series [1] (setting [2]) and in series [1] (read-out: FP EC50) was 27 nM each time. In “CHI Log D procedure”, the “CHI Log D” value came to 2.094. In addition, the “Solubility” value in “Solubility in PBS” stood at 38 µM (≈ 70.3 µg/mL).

As to `CC(=O)N1CCC[C@]12CC=CCCCC1(CCCC=CCCCCCC[C@@](C)(C(=O)N[C@@H](Cc3ccccc3)C(=O)N[C@@H](Cc3csc4ccccc34)C(=O)N[C@@H](CCC(N)=O)C(N)=O)NC(=O)[C@H](CCC(N)=O)NC(=O)[C@H](Cc3cccs3)NC(=O)[C@H](C)NC(=O)[C@H](C)NC(=O)[C@H](CCC(=O)O)NC(=O)[C@H](CC(=O)O)NC1=O)NC(=O)[C@H](C)NC(=O)[C@H](CC(=O)O)NC2=O` (stereo partly drawn) [I-486, Ac-PL3-Asp-Ala-B5-Asp-Glu-Ala-Ala-2Thi-Gln-S8-Phe-BztA-Gln-NH2], the IC50 in series [1] (setting [2]) and in series [1] (read-out: FP EC50) was 147 nM in each case. Moreover, the “CHI Log D” value in “CHI Log D procedure” worked out at 1.97. Further, in “Solubility in PBS”, the “Solubility” value amounted to 50 µM (≈ 92.4 µg/mL).

Consider `CC(=O)N1CCC[C@]12CC=CCCCC1(CCCC=CCCCCCC[C@@](C)(C(=O)N[C@@H](Cc3ccccc3)C(=O)N[C@@H](Cc3csc4ccccc34)C(=O)N[C@@H](CCC(N)=O)C(N)=O)NC(=O)[C@H](CCC(N)=O)NC(=O)[C@H](Cc3cccs3)NC(=O)[C@H](C)NC(=O)[C@H](C)NC(=O)[C@H](CCC(=O)O)NC(=O)[C@H](CC(=O)O)NC1=O)NC(=O)[C@H](C)NC(=O)[C@H](CC(=O)O)NC2=O` (stereo partly drawn) [I-487, Ac-PL3-Asp-Ala-B5-Asp-Glu-Ala-Ala-2Thi-Gln-S8-Phe-BztA-Gln-NH2], for which the IC50 in series [1] (setting [2]) and in series [1] (read-out: FP EC50) was 45 nM in each case. Further, the “CHI Log D” value in “CHI Log D procedure” was 1.99. Moreover, the “Solubility” value in “Solubility in PBS” is 44 µM (≈ 81.3 µg/mL).

The term chromatographic logD denotes lipophilicity estimated from chromatographic retention. Regarding `CC[C@H](C)[C@@H]1NC(=O)[C@H](CC(=O)O)NC(=O)[C@]2(CC=CCCCC3(CCCC=CCCCCCC[C@@](C)(C(=O)N[C@@H](Cc4ccccc4)C(=O)N[C@@H](Cc4csc5ccccc45)C(=O)N[C@@H](Cc4c[nH]cn4)C(N)=O)NC(=O)[C@H](CCC(N)=O)NC(=O)[C@H](Cc4cccs4)NC(=O)[C@H](C)NC(=O)[C@H](C)NC(=O)[C@H](CCC(=O)O)NC(=O)[C@H](CC(=O)O)NC3=O)NC1=O)CCCN2C(C)=O` (stereo partly drawn) [I-488, Ac-PL3-Asp-Ile-B5-Asp-Glu-Ala-Ala-2Thi-Gln-S8-Phe-BztA-His-NH2], the IC50 in series [1] (setting [2]) amounted to 43 nM. In “CHI Log D procedure”, this compound yielded a chromatographic logD of 2.4. In addition, in “Solubility in PBS” (Solubility (uM)), the Solubility was 30 µM (≈ 56.9 µg/mL).

As to `CC[C@H](C)[C@@H]1NC(=O)[C@H](CC(=O)O)NC(=O)[C@]2(CC=CCCCC3(CCCC=CCCCCCC[C@@](C)(C(=O)N[C@@H](Cc4ccccc4)C(=O)N[C@@H](Cc4csc5ccccc45)C(=O)N[C@@H](Cc4c[nH]cn4)C(N)=O)NC(=O)[C@H](CCC(N)=O)NC(=O)[C@H](Cc4cccs4)NC(=O)[C@H](C)NC(=O)[C@H](C)NC(=O)[C@H](CC(=O)O)NC(=O)[C@H](CC(=O)O)NC3=O)NC1=O)CCCN2C(C)=O` (stereo partly drawn) [I-489, Ac-PL3-Asp-Ile-B5-Asp-Asp-Ala-Ala-2Thi-Gln-S8-Phe-BztA-His-NH2], the IC50 in series [1] (setting [2]) was 57 nM. Besides, the chromatographic logD in the series “CHI Log D procedure” came to 2.34. Also, the Solubility in “Solubility in PBS” (Solubility (uM)) was determined as 36 µM (≈ 67.8 µg/mL).

In the case of `CC(=O)N1CCC[C@]12CC=CCCCC1(CCCC=CCCCCCC[C@@](C)(C(=O)N[C@@H](Cc3ccccc3)C(=O)N[C@@H](Cc3csc4ccccc34)C(=O)N[C@@H](Cc3ccco3)C(N)=O)NC(=O)[C@H](CCC(N)=O)NC(=O)[C@H](Cc3ccccc3)NC(=O)[C@H](C)NC(=O)[C@H](C)NC(=O)[C@H](CCC(=O)O)NC(=O)[C@H](CC(=O)O)NC1=O)NC(=O)[C@H](C)NC(=O)[C@H](CC(=O)O)NC2=O` (stereo partly drawn) [I-490, Ac-PL3-Asp-Ala-B5-Asp-Glu-Ala-Ala-Phe-Gln-S8-Phe-BztA-2FurA-NH2], the IC50 in series [1] (setting [2]) is 88 nM. The chromatographic logD in the series “CHI Log D procedure” amounted to 2.21. In addition, the “Solubility” value in the series “Solubility in PBS” stood at 50 µM (≈ 92.5 µg/mL).

Source of the values: patent US20240116985A1, “STAPLED PEPTIDES AND METHODS THEREOF” (priority 2020, published 2024).
